Source: paper PMC8457056, “Remodeling of the Fibrillation Pathway of α‐Synuclein by Interaction with Antimicrobial Peptide LL‐III” (Chemistry (Weinheim an Der Bergstrasse, Germany), 2021)

Assays:
[1] = tested on: neuronal SH‐SY5Y cells stably expressing an α‐Syn‐GFP fusion protein; assay: PFF-induced α-Syn-GFP aggregation in SH-SY5Y cells (structured-illumination microscopy); format: cell-based; details: 1 μM LL-III 1 h before PFF; for cells with α‐Syn‐GFP aggregates: 5 independent experiments, at least 150 cells per condition
Description: Finally, to test the anti‐aggregation activity of LL‐III in a cellular model, we used the α‐Syn pre‐formed fibril (PFF) model, which involves conversion of recombinant monomeric α‐Syn protein into fibrillar seeds that were added to neuronal SH‐SY5Y cells stably expressing an α‐Syn‐GFP fusion protein.[32, 33] In brief, untreated cells expressed soluble α‐Syn‐GFP that was rather homogenously distributed throughout the cells (Figure 3, left panel). Treatment of cells with PFF seeds caused aggregation of α‐Syn‐GFP, reflected by the formation of GFP‐positive foci (Figure 3, middle and right panel). These α‐Syn‐GFP aggregates could be visualized already 24 h after PFF treatment by fluorescence super‐resolution structured illumination microscopy.
Figure 3 LL‐III decreases PFF‐induced α‐Syn aggregation in neuronal cells. SH‐SY5Y cells stably expressing α‐Syn‐GFP were pre‐treated without or with LL‐III 1 h before adding PFF seeds to induce α‐Syn aggregation. A. α‐Syn was visualized by structured‐illumination microscopy 24 h and 48 h after PFF treatment. Green: α‐Syn (GFP), blue: nuclei (DAPI). B. Quantification of cells with α‐Syn aggregates was based on 5 independent experiments. In total, at least 150 cells were counted per condition. Data were processed by a Kolmogorov‐Smirnov test for Gaussian distribution followed by an unpaired two‐tailed Student's t‐test. *** p≤0.001.
LL‐III was pre‐incubated with α‐Syn‐GFP‐expressing SH‐SY5Y cells at a concentration of 1 μM one hour before PFF treatment to allow cellular uptake of LL‐III. The number of cells with α‐Syn‐GFP aggregates was quantified 24 h and 48 h after PFF seeding. […]
µM) and following the anisotropy changes of the Trp residue. […] The anisotropy was evaluated at 354 nm which corresponds to the maximum of emission of the free peptide. […]
Far-UV circular dichroism (CD) spectra were recorded by using a Jasco J- 715 spectropolarimeter from Jasco Cor-poration (Tokyo, Japan). […] A blank spectrum of 20 mM sodium acetate buffer, pH 5.0, was recorded and subtracted from all the samples spectra. […]

[2] = ref [28]; cited from earlier work
From the text: (§1) Antimicrobial peptides (AMPs) are a particular class of disordered proteins. They form an important part of the immune system of all living organisms and are considered as the first line of defense against infections caused by pathogens.[25, 26, 27] […] The LL‐III is a posi ...

[3] = tested on: cancer cells; details: cited from earlier work
From the text: as §1

[4] = tested on: several bacterial strains, fungi; details: ref [28]; cited from earlier work
From the text: as §1

## NH2-VNWKKIL GKIIKVVK -CONH2 [LL‐III]
[1]; 24 h after PFF seeding, without LL-III 48 %
  cells with α‐Syn‐GFP aggregates: 30%
[1]; 24 h and 48 h
  change in number of cells with aggregates: significantly decreased
[1]; 48 h after PFF seeding, without LL-III 54 %
  cells with α‐Syn‐GFP aggregates: 36%
[2]
  cytotoxicity: moderate cytotoxicity
[3]; ref [22]
  cellular localization: localizing mainly in the nucleolus and in granules
  translocation across plasma membrane: able to translocate across the plasma membrane of cancer cells
[3]; ref [28]
  activity against cancer cells: remarkable activity
[4]
  activity against several bacterial strains, fungi: remarkable activity
